{"source": "patent US20070219234A1", "about": "“Thienopyridine Derivatives” (priority 2004, published 2007)", "key": {"[1]": {"tested_on": "ST2 cells", "experiment": "Osteoblast differentiation test (alkaline phosphatase activity)", "type": "cell-based", "conditions": "Mus musculus, ST-2, 96 h; at 0.03 μg/mL; culturing for four days; control group (0.1% DMSO) = 100%; read-out: alkaline phosphatase activity increase rate", "experimental": "ST2 cells (available from Institute of Physical and Chemical Research) which are stroma cells derived from mouse marrow were used. In this test, α-MEM medium (available from GIBCO BRL Cat. No. 10370-021) with which 10% (v/v) inactivated fetal bovine serum (available from Hyclone Company, FBS) and 1% (v/v) Penicillin-Streptomycin, Liquid (available from GIBCO BRL Cat. No. 15140-122) are mixed (hereinbelow abbreviated as 10% -FBS-αMEM) was used. Every culture in this test was conducted in a CO2 incubator (37° C., 95% humidity, 5% CO2).\nThe cells mentioned above were harvested with 2 mL of 0.25% trypsin solution (available from GIBCO BRL Cat. No. 15050-065) and after they were dispersed by adding 10 mL of 10% -FBS-αMEM, the cells were collected by centrifugal separation (25° C., 800 rpm, 5 minutes). A cell suspension containing 40,000 cells/mL was prepared from the collected cells using 10% -FBS-αMEM.\nThe cell suspension was dispensed to the wells of a 96 well microplate (Falcon company) in an amount of 100 μL per well so as to achieve 4,000 cells/well and cultured for 24 hours. Compounds were dispensed to the wells in final concentrations of 0.01, 0.03, 0.1, 0.3 μg/ml except the following control group. DMSO was dispensed to the wells of the control group in a final concentration of 0.1% (v/v). Alkaline phosphatase (ALP) activity was measured for each group after culturing for four days.\nThe measurement of ALP activity was performed as follows. That is, after the whole medium was removed from each well of the culturing plate, each well was washed twice by dispensing and removing 100 μL of Dulbecco's phosphate buffer (available from GIBCO BRL Cat. No. 14190-144). Cell lysing solution containing 10 mM MgCl2 and 2%(v/v) TritonX-100 (Sigma company) was prepared and 50 μL/well of the cell lysing solution was dispensed and the mixture was stirred at room temperature for five minutes. An ALP substrate solution containing 50 mM of diethanolamine (Wako Pure Chemical Industries, Ltd. Cat. No. 099-03112) and 20 mM of […] (Wako Pure Chemical Industries, Ltd. Cat. No. 147-02343) was prepared and 50 μL/well of the ALP substrate solution was dispensed and after allowing to stand at room temperature for 10 minutes, absorbance was measured using a microplate reader (Bio-rad company). Alkaline phosphatase activity increase rate (%) in the group blended with test compounds was calculated assuming the observed value of the control group of each plate to be 100% and evaluated as the osteoblast differentiation promoting activity."}}}
{"smiles": "NC(=O)c1sc2nccc(N3CCCN(Cc4ccccc4)CC3)c2c1N", "note": "[Example 56, 3-amino-4-(4-benzyl-1,4-diazepan-1-yl)thieno[2,3-b]pyridine-2-carboxamide]", "values": [{"measurement": "melting point", "result": "194 to 195", "unit": "°C"}]}
{"smiles": "NC(=O)c1sc2nccc(N3CCCN(c4ccc(Cl)cc4)CC3)c2c1N", "note": "[Example 60, 3-amino-4-[4-(4-chlorophenyl)-1,4-diazepan-1-yl]thieno[2,3-b]pyridine-2-carboxamide]", "values": [{"measurement": "melting point", "result": "92 to 96", "unit": "°C"}]}
{"smiles": "NC(=O)c1sc2nccc(N3CCCN(c4ccccc4Cl)CC3)c2c1N", "note": "[Example 61, 3-amino-4-[4-(2-chlorophenyl)-1,4-diazepan-1-yl]thieno[2,3-b]pyridine-2-carboxamide]", "values": [{"measurement": "melting point", "result": "206 to 210", "unit": "°C"}]}
{"smiles": "N#Cc1ccc(N2CCCN(c3ccnc4sc(C(N)=O)c(N)c34)CC2)cc1", "note": "[Example 62, 3-amino-4-[4-(4-cyanophenyl)-1,4-diazepan-1-yl]thieno[2,3-b]pyridine-2-carboxamide]", "values": [{"measurement": "melting point", "result": "151 to 153", "unit": "°C"}]}
{"smiles": "NC(=O)c1sc2nccc(N3CCCN(c4ccc(C(F)(F)F)cc4)CC3)c2c1N", "note": "[Example 63, 3-amino-4-[4-(4-trifluoromethylphenyl)-1,4-diazepan-1-yl]thieno[2,3-b]pyridine-2-carboxamide]", "values": [{"measurement": "melting point", "result": "204 to 208", "unit": "°C"}]}
{"smiles": "COc1ccccc1N1CCCN(c2ccnc3sc(C(N)=O)c(N)c23)CC1", "note": "[Example 67, 3-amino-4-[4-(2-methoxyphenyl)-1,4-diazepan-1-yl]thieno[2,3-b]pyridine-2-carboxamide]", "values": [{"measurement": "melting point", "result": "179 to 184", "unit": "°C"}]}
{"smiles": "Cc1cc(N2CCCN(c3ccnc4sc(C(N)=O)c(N)c34)CC2)ccc1F", "note": "[Example 69, 3-amino-4-[4-(4-fluoro-3-methylphenyl)-1,4-diazepan-1-yl]thieno[2,3-b]pyridine-2-carboxamide]", "values": [{"measurement": "melting point", "result": "194 to 197", "unit": "°C"}]}
{"smiles": "Cc1ccccc1N1CCCN(c2ccnc3sc(C(N)=O)c(N)c23)CC1", "note": "[Example 70, 3-amino-4-[4-(2-toluyl)-1,4-diazepan-1-yl]thieno[2,3-b]pyridine-2-carboxamide]", "values": [{"measurement": "melting point", "result": "206 to 209 °C (dec.)"}]}
{"smiles": "Cc1ccc(N2CCCN(c3ccnc4sc(C(N)=O)c(N)c34)CC2)cc1F", "note": "[Example 71, 3-amino-4-[4-(3-fluoro-4-methylphenyl)-1,4-diazepan-1-yl]thieno[2,3-b]pyridine-2-carboxamide]", "values": [{"measurement": "melting point", "result": "79 to 83", "unit": "°C"}]}
{"smiles": "Cc1cc(N2CCN(c3ccccc3)CC2)c2c(N)c(C(N)=O)sc2n1", "note": "[Example 75, 3-amino-6-methyl-4-(4-phenylpiperazin-1-yl)thieno[2,3-b]pyridine-2-carboxamide]", "values": [{"measurement": "melting point", "result": "247 to 250", "unit": "°C"}]}
{"smiles": "NC(=O)c1sc2nccc(N3CCCN(c4cccc(Cl)c4)CC3)c2c1N", "note": "[Example 78, 3-amino-4-[4-(3-chlorophenyl)-1,4-diazepan-1-yl]thieno[2,3-b]pyridine-2-carboxamide]", "values": [{"measurement": "melting point", "result": "213 to 215", "unit": "°C"}]}
{"smiles": "NC(=O)c1sc2nccc(N3CCCN(c4ccc(OCc5ccccc5)cc4)CC3)c2c1N", "note": "[Example 79, 3-amino-4-{4-[4-(benzyloxy)phenyl]-1,4-diazepan-1-yl}thieno[2,3-b]pyridine-2-carboxamide]", "values": [{"measurement": "melting point", "result": "211 to 213", "unit": "°C"}]}
{"smiles": "NC(=O)c1sc2nccc(N3CCCN(c4cccc([N+](=O)[O-])c4)CC3)c2c1N", "note": "[Example 80, 3-amino-4-[4-(3-nitrophenyl)-1,4-diazepan-1-yl]thieno[2,3-b]pyridine-2-carboxamide]", "values": [{"measurement": "melting point", "result": "180 to 185", "unit": "°C"}]}
{"smiles": "NC(=O)c1sc2nccc(N3CCCN(c4ccc(F)c(Cl)c4)CC3)c2c1N", "note": "[Example 81, 3-amino-4-[4-(3-chloro-4-fluorophenyl)-1,4-diazepan-1-yl]thieno[2,3-b]pyridine-2-carboxamide]", "values": [{"measurement": "melting point", "result": "181 to 184", "unit": "°C"}]}
{"smiles": "NC(=O)c1sc2nccc(N3CCCN(c4ccc(Br)cc4)CC3)c2c1N", "note": "[Example 82, 3-amino-4-[4-(4-bromophenyl)-1,4-diazepan-1-yl]thieno[2,3-b]pyridine-2-carboxamide]", "values": [{"measurement": "melting point", "result": "170 to 173", "unit": "°C"}]}
{"smiles": "NC(=O)c1sc2nccc(N3CCCN(c4cccc(C(F)(F)F)c4)CC3)c2c1N", "note": "[Example 86, 3-amino-4-{4-[3-(trifluoromethyl)phenyl]-1,4-diazepan-1-yl}thieno[2,3-b]pyridine-2-carboxamide]", "values": [{"measurement": "melting point", "result": "195 to 197", "unit": "°C"}]}
{"smiles": "NC(=O)c1sc2nccc(N3CCCN(c4ccc(OC(F)(F)F)cc4)CC3)c2c1N", "note": "[Example 87, 3-amino-4-{4-[4-(trifluoromethoxy)phenyl]-1,4-diazepan-1-yl}thieno[2,3-b]pyridine-2-carboxamide]", "values": [{"measurement": "melting point", "result": "163 to 165", "unit": "°C"}]}
{"smiles": "NC(=O)c1sc2nccc(N3CCCN(c4c(F)c(F)nc(F)c4F)CC3)c2c1N", "note": "[Example 88, 3-amino-4-[4-(2,3,5,6-tetrafluoropyridin-4-yl)-1,4-diazepan-1-yl]thieno[2,3-b]pyridine-2-carboxamide]", "values": [{"measurement": "melting point", "result": "228 to 231", "unit": "°C"}]}
{"smiles": "NC(=O)c1sc2nccc(N3CCCN(c4ncnc5ccccc45)CC3)c2c1N", "note": "[Example 89, 3-amino-4-(4-quinazolin-4-yl-1,4-diazepan-1-yl)thieno[2,3-b]pyridine-2-carboxamide]", "values": [{"measurement": "melting point", "result": "228 to 231", "unit": "°C"}]}
{"smiles": "Cc1ccc(N2CCCN(c3ccnc4sc(C(N)=O)c(N)c34)CC2)cc1[N+](=O)[O-]", "note": "[Example 90, 3-amino-4-[4-(4-methyl-3-nitrophenyl)-1,4-diazepan-1-yl]thieno[2,3-b]pyridine-2-carboxamide]", "values": [{"measurement": "melting point", "result": "114 to 117", "unit": "°C"}]}
{"smiles": "CC(C)(C)c1ccc(N2CCCN(c3ccnc4sc(C(N)=O)c(N)c34)CC2)cc1", "note": "[Example 92, 3-amino-4-[4-(4-tert-butylphenyl)-1,4-diazepan-1-yl]thieno[2,3-b]pyridine-2-carboxamide]", "values": [{"measurement": "melting point", "result": "231 to 232", "unit": "°C"}]}
{"smiles": "Cc1cccc(N2CCN(c3ccnc4sc(C(N)=O)c(N)c34)CC2C)c1", "note": "(stereo not shown) [Example 95, 3-amino-4-[3-methyl-4-(3-methylphenyl)piperazin-1-yl]thieno[2,3-b]pyridine-2-carboxamide]", "values": [{"measurement": "melting point", "result": "215 to 217", "unit": "°C"}]}
{"smiles": "NC(=O)c1sc2nccc(N3CCCN(c4cccnc4)CC3)c2c1N", "note": "[Example 96, 3-amino-4-(4-pyridin-3-yl-1,4-diazepan-1-yl)thieno[2,3-b]pyridine-2-carboxamide]", "values": [{"measurement": "activity at 0.03 µg/mL", "setting": "[1]", "result": "> 150", "unit": "%"}]}
{"smiles": "NC(=O)c1sc2nccc(N3CCCN(c4ccncc4)CC3)c2c1N", "note": "[Example 100, 3-amino-4-(4-pyridin-4-yl-1,4-diazepan-1-yl)thieno[2,3-b]pyridine-2-carboxamide]", "values": [{"measurement": "melting point", "result": "288 to 291 °C (dec.)"}]}
{"smiles": "CC(=O)N1CCCN(c2ccnc3sc(C(N)=O)c(N)c23)CC1", "note": "[Example 103, 4-(4-acetyl-1,4-diazepan-1-yl)-3-aminothieno[2,3-b]pyridine-2-carboxamide]", "values": [{"measurement": "melting point", "result": "214 to 215", "unit": "°C"}]}
{"smiles": "CS(=O)(=O)N1CCCN(c2ccnc3sc(C(N)=O)c(N)c23)CC1", "note": "[Example 104, 3-amino-4-[4-(methylsulfonyl)-1,4-diazepan-1-yl]thieno[2,3-b]pyridine-2-carboxamide]", "values": [{"measurement": "melting point", "result": "214 to 217", "unit": "°C"}]}
{"smiles": "NC(=O)c1sc2nccc(N3CCCN(c4ccc(Cl)nn4)CC3)c2c1N", "note": "[Example 105, 3-amino-4-[4-(6-chloropyridazin-3-yl)-1,4-diazepan-1-yl]thieno[2,3-b]pyridine-2-carboxamide]", "values": [{"measurement": "melting point", "result": "232 to 234", "unit": "°C"}]}
{"smiles": "COc1ccnc2sc(C(N)=O)c(N)c12", "note": "[Example 107, 3-amino-4-methoxythieno[2,3-b]pyridine-2-carboxamide]", "values": [{"measurement": "melting point", "result": "238 to 241", "unit": "°C"}]}
{"smiles": "CCOc1ccnc2sc(C(N)=O)c(N)c12", "note": "[Example 108, 3-amino-4-ethoxythieno[2,3-b]pyridine-2-carboxamide]", "values": [{"measurement": "melting point", "result": "241 to 243", "unit": "°C"}]}
{"smiles": "NC(=O)c1sc2nccc(OCc3ccccc3)c2c1N", "note": "[Example 110, 3-amino-4-(benzyloxy)thieno[2,3-b]pyridine-2-carboxamide]", "values": [{"measurement": "melting point", "result": "216 to 221", "unit": "°C"}]}
{"smiles": "CC(C)Oc1ccnc2sc(C(N)=O)c(N)c12", "note": "[Example 111, 3-amino-4-isopropoxythieno[2,3-b]pyridine-2-carboxamide]", "values": [{"measurement": "melting point", "result": "238 to 240 °C (dec.)"}]}
{"smiles": "NC(=O)c1sc2nccc(OC3CCCCCC3)c2c1N", "note": "[Example 112, 3-amino-4-(cycloheptyloxy)thieno[2,3-b]pyridine-2-carboxamide]", "values": [{"measurement": "melting point", "result": "179 to 180", "unit": "°C"}]}
{"smiles": "CCSc1ccnc2sc(C(N)=O)c(N)c12", "note": "[Example 114, 3-amino-4-(ethylthio)thieno[2,3-b]pyridine-2-carboxamide]", "values": [{"measurement": "melting point", "result": "230 to 235", "unit": "°C"}]}
{"smiles": "NC(=O)c1sc2nccc(SC3CCCCC3)c2c1N", "note": "[Example 115, 3-amino-4-(cyclohexylthio)thieno[2,3-b]pyridine-2-carboxamide]", "values": [{"measurement": "melting point", "result": "195 to 197", "unit": "°C"}]}
